Assay results as given in ChEMBL document CHEMBL5696442, “Discovery of type II inhibitors of TGFβ-activated kinase 1 (TAK1) and mitogen-activated protein kinase kinase kinase kinase 2 (MAP4K2)” (J Med Chem, 2015).
Calls of active or inactive are those of the source. The rule behind the calls is not given here.

Experiments:
[1] = target: T1, Scaffold protein ILK (Homo sapiens) (UniProt Q13418); assay: Inhibition of ILK Protein Kinase Domain labeling site in human Huh-7 cell lysate at 1 uM by KiNativ Profiling analysis relative to control; type: subcellular
T1 sequence (whole entry): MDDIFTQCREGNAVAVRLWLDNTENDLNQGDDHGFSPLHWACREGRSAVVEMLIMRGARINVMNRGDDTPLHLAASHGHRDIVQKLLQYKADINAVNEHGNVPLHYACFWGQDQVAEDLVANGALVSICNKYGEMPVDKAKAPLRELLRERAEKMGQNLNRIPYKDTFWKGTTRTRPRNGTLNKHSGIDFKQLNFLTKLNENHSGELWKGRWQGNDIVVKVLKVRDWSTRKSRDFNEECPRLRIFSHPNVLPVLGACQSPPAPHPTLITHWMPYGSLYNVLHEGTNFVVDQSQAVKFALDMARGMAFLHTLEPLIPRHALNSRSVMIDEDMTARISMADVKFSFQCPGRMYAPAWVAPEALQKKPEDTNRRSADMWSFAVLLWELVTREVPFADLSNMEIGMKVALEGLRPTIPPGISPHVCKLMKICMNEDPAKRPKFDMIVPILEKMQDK

[2] = target: T2, Serine/threonine-protein kinase Nek1 (Homo sapiens) (UniProt Q96PY6); assay: Inhibition of NEK1 Lys2 labeling site in human Huh-7 cell lysate at 1 uM by KiNativ Profiling analysis relative to control; type: subcellular
T2 sequence (whole entry): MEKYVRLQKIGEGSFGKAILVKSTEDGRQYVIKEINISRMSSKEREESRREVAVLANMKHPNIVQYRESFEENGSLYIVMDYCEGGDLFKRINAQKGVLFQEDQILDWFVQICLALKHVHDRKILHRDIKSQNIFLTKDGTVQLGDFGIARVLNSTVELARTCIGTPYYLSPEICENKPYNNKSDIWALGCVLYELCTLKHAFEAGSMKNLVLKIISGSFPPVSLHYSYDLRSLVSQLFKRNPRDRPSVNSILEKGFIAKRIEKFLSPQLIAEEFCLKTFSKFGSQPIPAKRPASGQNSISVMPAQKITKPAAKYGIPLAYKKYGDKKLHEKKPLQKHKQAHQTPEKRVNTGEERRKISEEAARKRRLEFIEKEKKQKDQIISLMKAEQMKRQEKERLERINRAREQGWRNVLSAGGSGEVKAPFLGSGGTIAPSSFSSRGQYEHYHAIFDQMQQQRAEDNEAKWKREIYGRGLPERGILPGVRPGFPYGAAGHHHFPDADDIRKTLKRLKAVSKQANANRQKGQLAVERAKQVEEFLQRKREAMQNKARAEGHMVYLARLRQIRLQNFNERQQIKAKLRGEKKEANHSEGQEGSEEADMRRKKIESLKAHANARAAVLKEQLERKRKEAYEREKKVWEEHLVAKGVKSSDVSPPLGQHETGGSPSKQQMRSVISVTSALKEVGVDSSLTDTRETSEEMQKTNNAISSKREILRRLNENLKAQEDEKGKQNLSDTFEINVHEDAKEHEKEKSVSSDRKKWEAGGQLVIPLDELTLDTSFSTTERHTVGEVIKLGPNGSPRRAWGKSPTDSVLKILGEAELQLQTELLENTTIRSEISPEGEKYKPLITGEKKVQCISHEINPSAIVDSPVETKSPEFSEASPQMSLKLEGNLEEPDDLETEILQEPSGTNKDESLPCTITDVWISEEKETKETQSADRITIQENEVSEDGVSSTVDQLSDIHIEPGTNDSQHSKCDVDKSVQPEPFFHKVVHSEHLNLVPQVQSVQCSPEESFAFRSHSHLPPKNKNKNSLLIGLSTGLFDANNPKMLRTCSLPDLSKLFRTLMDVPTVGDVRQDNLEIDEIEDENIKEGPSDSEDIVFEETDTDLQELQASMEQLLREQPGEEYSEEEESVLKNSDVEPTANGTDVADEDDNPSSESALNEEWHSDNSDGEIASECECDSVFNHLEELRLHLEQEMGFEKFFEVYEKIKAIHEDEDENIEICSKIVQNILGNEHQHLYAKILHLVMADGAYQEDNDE

[3] = target: Serine/threonine-protein kinase Chk2 (Homo sapiens) (UniProt O96017); assay: Inhibition of CHK2 Lys1 labeling site in human A-375 cells at 0.5 uM by KiNativ Profiling analysis relative to control; type: cell-based
Serine/threonine-protein kinase Chk2 (Homo sapiens), sequence (O96017 whole entry): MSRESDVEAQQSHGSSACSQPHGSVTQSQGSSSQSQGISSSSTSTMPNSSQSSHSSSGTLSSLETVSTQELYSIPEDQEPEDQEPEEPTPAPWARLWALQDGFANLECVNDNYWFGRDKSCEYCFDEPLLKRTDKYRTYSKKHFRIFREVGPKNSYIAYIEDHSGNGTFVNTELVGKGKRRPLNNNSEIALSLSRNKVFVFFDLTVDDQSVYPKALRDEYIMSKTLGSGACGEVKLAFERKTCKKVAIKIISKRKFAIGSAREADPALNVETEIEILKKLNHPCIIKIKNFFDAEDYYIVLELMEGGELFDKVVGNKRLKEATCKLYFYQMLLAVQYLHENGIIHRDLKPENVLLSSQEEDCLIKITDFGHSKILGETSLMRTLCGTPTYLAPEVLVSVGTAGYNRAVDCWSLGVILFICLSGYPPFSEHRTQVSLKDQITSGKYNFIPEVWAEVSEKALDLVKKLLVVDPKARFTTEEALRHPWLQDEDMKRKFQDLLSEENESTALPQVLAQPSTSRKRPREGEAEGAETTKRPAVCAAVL

[4] = target: Serine/threonine-protein kinase 16 (Homo sapiens) (UniProt O75716); assay: Inhibition of MPSK1 Lys2 labeling site in human A-375 cells at 0.5 uM by KiNativ Profiling analysis relative to control; type: cell-based
Serine/threonine-protein kinase 16 (Homo sapiens), sequence (O75716 whole entry): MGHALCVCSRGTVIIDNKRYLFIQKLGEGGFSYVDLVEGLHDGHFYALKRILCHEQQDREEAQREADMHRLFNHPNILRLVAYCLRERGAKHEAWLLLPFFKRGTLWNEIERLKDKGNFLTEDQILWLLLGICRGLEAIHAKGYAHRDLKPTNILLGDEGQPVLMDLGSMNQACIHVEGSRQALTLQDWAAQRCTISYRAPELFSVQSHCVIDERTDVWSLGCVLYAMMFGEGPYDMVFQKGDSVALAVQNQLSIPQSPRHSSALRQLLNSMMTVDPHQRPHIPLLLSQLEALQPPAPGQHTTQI

[5] = target: Mitogen-activated protein kinase 3 (Homo sapiens) (UniProt P27361); assay: Inhibition of ERK1 (unknown origin) at 1 uM by Ambit Kinomescan binding assay relative to control; values are per cent of control
Mitogen-activated protein kinase 3 (Homo sapiens), sequence (P27361 whole entry): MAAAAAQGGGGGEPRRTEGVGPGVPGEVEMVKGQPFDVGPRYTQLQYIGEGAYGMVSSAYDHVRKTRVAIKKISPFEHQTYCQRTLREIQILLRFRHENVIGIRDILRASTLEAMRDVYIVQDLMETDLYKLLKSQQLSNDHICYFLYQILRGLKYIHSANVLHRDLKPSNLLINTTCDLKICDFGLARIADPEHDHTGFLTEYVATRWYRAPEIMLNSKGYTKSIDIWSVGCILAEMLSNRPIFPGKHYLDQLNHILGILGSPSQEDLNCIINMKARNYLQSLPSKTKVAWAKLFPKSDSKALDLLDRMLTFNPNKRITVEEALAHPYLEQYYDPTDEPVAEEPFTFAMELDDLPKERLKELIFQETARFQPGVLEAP

[6] = target: Calcium/calmodulin-dependent protein kinase type 1G (Homo sapiens) (UniProt Q96NX5); assay: Inhibition of CAMK1G (unknown origin) at 10 uM by Ambit Kinomescan binding assay relative to control
Calcium/calmodulin-dependent protein kinase type 1G (Homo sapiens), sequence (Q96NX5 whole entry): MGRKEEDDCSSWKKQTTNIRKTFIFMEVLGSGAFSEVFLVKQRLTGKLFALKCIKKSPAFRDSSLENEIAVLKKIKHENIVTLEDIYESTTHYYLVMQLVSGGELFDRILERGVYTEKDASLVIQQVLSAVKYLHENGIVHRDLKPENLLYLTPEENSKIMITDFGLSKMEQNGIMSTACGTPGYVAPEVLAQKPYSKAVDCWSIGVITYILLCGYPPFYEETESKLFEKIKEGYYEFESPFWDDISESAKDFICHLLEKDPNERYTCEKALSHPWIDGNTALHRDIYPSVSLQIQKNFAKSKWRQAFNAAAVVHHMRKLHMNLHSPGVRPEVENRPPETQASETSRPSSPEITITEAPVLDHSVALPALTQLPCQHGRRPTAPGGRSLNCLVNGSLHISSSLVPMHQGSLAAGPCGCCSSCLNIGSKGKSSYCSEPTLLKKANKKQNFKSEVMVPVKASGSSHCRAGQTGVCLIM

[7] = target: Dual specificity protein kinase CLK4 (Homo sapiens) (UniProt Q9HAZ1); assay: Inhibition of CLK4 (unknown origin) at 10 uM by Ambit Kinomescan binding assay
Dual specificity protein kinase CLK4 (Homo sapiens), sequence (Q9HAZ1 whole entry, looked up, the tested form may be a part): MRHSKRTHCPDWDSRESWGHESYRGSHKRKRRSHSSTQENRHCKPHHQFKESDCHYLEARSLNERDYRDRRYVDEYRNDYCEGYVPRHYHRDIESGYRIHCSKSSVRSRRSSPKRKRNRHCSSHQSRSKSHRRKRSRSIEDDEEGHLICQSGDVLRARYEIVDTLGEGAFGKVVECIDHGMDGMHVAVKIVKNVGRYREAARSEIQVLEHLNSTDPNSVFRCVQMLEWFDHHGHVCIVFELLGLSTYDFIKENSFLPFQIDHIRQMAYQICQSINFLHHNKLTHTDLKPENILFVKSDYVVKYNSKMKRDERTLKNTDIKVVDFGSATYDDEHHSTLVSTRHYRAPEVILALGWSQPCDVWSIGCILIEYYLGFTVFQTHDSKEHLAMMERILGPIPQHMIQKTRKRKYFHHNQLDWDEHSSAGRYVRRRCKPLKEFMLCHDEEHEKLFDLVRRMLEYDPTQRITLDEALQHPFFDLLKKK

[8] = target: Non-receptor tyrosine-protein kinase TYK2 (Homo sapiens) (UniProt P29597); assay: Inhibition of TYK2 domain2 ACT labeling site in human A-375 cells at 0.5 uM by KiNativ Profiling analysis relative to control; type: cell-based
Non-receptor tyrosine-protein kinase TYK2 (Homo sapiens), sequence (P29597 whole entry, the tested form may be a part): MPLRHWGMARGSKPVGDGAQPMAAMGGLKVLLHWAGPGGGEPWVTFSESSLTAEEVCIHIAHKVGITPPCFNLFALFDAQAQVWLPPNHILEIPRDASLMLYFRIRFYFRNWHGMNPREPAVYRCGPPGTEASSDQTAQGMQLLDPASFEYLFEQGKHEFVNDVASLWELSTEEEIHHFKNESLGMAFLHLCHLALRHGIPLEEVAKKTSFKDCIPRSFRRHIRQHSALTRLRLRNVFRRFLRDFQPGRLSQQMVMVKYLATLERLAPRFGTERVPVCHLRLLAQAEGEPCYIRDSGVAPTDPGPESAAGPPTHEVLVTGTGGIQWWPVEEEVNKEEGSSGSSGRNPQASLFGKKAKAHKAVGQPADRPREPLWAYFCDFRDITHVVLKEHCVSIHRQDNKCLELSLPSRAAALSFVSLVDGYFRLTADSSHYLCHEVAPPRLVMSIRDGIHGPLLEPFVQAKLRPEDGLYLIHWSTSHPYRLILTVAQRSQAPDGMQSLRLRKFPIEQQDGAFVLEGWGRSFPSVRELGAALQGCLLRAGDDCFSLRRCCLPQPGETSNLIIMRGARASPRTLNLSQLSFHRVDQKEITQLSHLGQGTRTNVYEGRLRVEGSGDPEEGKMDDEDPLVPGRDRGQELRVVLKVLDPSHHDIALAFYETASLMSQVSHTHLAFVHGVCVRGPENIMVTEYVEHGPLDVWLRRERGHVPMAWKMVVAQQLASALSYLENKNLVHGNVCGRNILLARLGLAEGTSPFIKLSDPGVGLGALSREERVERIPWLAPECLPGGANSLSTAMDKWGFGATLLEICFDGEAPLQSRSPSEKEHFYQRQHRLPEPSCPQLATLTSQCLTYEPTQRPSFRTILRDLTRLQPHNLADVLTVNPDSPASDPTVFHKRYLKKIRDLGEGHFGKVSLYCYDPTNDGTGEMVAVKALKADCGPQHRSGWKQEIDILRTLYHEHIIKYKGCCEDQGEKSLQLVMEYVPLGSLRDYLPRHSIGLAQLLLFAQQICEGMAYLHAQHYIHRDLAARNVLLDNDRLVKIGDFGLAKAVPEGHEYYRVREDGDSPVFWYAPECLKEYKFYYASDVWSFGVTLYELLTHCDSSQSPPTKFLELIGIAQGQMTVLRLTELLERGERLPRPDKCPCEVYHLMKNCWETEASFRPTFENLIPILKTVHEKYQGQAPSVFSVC

[9] = target: Serine/threonine-protein kinase 26 (Homo sapiens) (UniProt Q9P289); assay: Inhibition of MST4 Lys1 labeling site in human A-375 cells at 0.05 uM by KiNativ Profiling analysis relative to control; type: cell-based
Serine/threonine-protein kinase 26 (Homo sapiens), sequence (Q9P289 2-416 limits assumed): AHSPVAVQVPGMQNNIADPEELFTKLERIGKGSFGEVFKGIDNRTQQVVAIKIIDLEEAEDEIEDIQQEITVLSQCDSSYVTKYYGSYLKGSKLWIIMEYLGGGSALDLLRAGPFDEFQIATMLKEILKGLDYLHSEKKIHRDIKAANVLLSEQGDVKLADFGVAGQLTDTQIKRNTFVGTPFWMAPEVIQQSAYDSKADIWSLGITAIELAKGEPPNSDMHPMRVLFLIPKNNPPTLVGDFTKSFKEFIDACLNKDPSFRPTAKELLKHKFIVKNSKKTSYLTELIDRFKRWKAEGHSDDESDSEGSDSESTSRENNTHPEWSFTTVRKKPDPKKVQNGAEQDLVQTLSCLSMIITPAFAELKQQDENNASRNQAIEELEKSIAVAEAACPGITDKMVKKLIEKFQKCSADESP

[10] = target: TRAF2 and NCK-interacting protein kinase (Homo sapiens) (UniProt Q9UKE5); assay: Inhibition of TNIK K1 labeling site in human Huh-7 cells at 1 uM by KiNativ Profiling analysis relative to control; type: cell-based
[11] = target: Calcium/calmodulin-dependent protein kinase type II subunit delta (Homo sapiens) (UniProt Q13557); assay: Inhibition of CAMK2d K1 labeling site harbouring IPTGQEYAAKIINTKK in human Huh-7 cells at 1 uM by KiNativ Profiling analysis relative to control; type: cell-based
Calcium/calmodulin-dependent protein kinase type II subunit delta (Homo sapiens), sequence (Q13557 whole entry): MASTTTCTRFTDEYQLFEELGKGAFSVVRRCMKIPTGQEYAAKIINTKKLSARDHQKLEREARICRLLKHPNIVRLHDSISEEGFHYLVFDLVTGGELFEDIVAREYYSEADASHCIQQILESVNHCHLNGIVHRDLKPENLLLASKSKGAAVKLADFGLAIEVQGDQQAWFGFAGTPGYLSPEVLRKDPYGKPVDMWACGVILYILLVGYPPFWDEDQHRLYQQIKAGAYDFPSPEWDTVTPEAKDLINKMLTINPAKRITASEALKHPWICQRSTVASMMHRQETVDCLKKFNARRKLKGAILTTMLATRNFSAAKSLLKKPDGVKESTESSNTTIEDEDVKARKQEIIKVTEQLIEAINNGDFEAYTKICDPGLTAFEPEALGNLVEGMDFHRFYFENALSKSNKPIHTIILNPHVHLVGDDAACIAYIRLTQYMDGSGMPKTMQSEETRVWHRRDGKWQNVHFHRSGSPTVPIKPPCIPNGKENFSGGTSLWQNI

## CNc1cc(Oc2cc(C(=O)Nc3cc(N4CCN(C)CC4)cc(C(F)(F)F)c3)ccc2C)ncn1
[1]
  inhibition: -2.4%
[2]
  inhibition: -1.1%

## CCN1CCN(Cc2ccc(NC(=O)c3ccc(C)c(/C=C/c4cnc5[nH]ccc5c4OC)c3)cc2C(F)(F)F)CC1
[3]
  inhibition: -4.8%
[4]
  inhibition: 15%
[5]
  residual activity: 100%

## CCN1CCN(Cc2ccc(NC(=O)c3ccc(C)c(Oc4ccnc5[nH]ccc45)c3)cc2C(F)(F)F)CC1
[6]
  inhibition: 20%
[7]
  inhibition: inactive
[8]
  inhibition: -3.5%
[9]
  inhibition: -8.3%
[10]
  inhibition: 35.6%
[11]
  inhibition: 4.4%
